Values quoted from earlier work as cited in patent publication WO2013169007A1, “Sustained-release complex preparations for treating diabetes with improved drug compliance and method for preparing same” (priority 2012, dated 2013).

CCC1=C(C)CN(C(=O)NCCc2ccc(S(=O)(=O)NC(=O)N[C@H]3CC[C@H](C)CC3)cc2)C1=O [glimepiride]
drug half-life (continuous administration): about 9 hours | absorption by the gastrointestinal tract (in vivo, po): almost completely absorbed
